For the data set the following is noted: human, in vivo.

Structures are written as SMILES.

Procedure: A current dose of Taxol (paclitaxel) is 375 mg.
In this case, the prescriber would use the following information for the patient receiving Taxol: Current Dose 375 mg; Current Marker 660 (a unitless marker indicative of the current platelet count); Desired Marker 1,200 (a unitless marker indicative of where the prescriber wants to see the platelet count raised to); Previous Marker 640 (a unitless marker indicative of the patient's previous ANC).

Take `CC(=O)O[C@H]1C(=O)[C@@]2(C)[C@H]([C@H](OC(=O)c3ccccc3)[C@]3(O)C[C@H](OC(=O)[C@H](O)[C@@H](NC(=O)c4ccccc4)c4ccccc4)C(C)=C1C3(C)C)[C@]1(OC(C)=O)CO[C@@H]1C[C@@H]2O` [Taxol, paclitaxel]: the “Previous Marker (patient's previous ANC)” value was 640.

These data come from patent US6581606B2, “Method, apparatus and system for use in treating patient with a drug having an antineoplastic effect to optimize therapy and prevent an adverse drug response” (The Rx Files Corporation, priority 1999, dated 2003).
